Assay results as given in patent US9364438B2, “Process for producing solid particles” (Takeda Pharmaceutical Company Limited, priority 2012, dated 2016).

Test: Microscopic observation of precipitated resatorvid crystals (poor solvent crystallization)
Type: physicochemical
Details: microscope
Description: Resatorvid (10 mg) was dissolved in methanol (0.5 mL) to prepare a methanol solution of resatorvid. The solution was added dropwise to water (5 mL) for injection with stirring at 600 rpm to allow precipitation of resatorvid crystal. The crystal was recovered, and vacuum dried at 50° C. for 24 hr. The obtained crystal was observed under a microscope.
In the same manner as in Comparative Example 1 except that water for injection containing nanobubbles produced under the above-mentioned conditions was used instead of water for injection, resatorvid crystal was obtained. The obtained crystal was observed under a microscope.
Resatorvid (10 mg) was dissolved in methanol (0.5 mL) to prepare a methanol solution of resatorvid. Polysorbate 80 (2 mg) was dissolved in water for injection (10 mL) to prepare aqueous polysorbate 80 solution. The aforementioned resatorvid solution (0.5 mL) was added dropwise to water (10 mL) for injection with stirring at 600 rpm to allow precipitation of resatorvid crystal. The crystal was recovered, and vacuum dried at 50° C. for 24 hr. The obtained crystal was observed under a microscope.
In the same manner as in Comparative Example 2 except that water for injection containing nanobubbles produced under the above-mentioned conditions was used instead of water for injection, resatorvid crystal was obtained. The obtained crystal was observed under a microscope.

| average maximum length of each crystal particle (poor solvent aqueous polysorbate 80 nanobubble solution, compared with conventional aqueous polysorbate 80 solution (Comparative Example 2)) | average maximum length of each crystal particle (poor solvent nanobubble water, compared with conventional water for injection (Comparative Example 1), FIG. 1 vs FIG. 2) | Compound |
| --- | --- | --- |
| smaller average maximum length |  | CCOC(=O)C1=CCCC[C@H]1S(=O)(=O)Nc1ccc(F)cc1Cl [Example 2, ethyl (6R)-6-[(2-chloro-4-fluoroanilino)sulfonyl]-1-cyclohexene-1-carboxylate] |
|  | smaller average maximum length | CCOC(=O)C1=CCCC[C@H]1S(=O)(=O)Nc1ccc(F)cc1Cl [Example 1, ethyl (6R)-6-[(2-chloro-4-fluoroanilino)sulfonyl]-1-cyclohexene-1-carboxylate] |
